# Tested on: Digitaria sanguinalis (DIGSA)
# Test: Herbicidal pre-emergence action (A), 1280 g/ha
# Assay type: in vivo
# Settings: visual grading after ca. 3 weeks vs untreated controls, 100% = plants have died off, 0% = as control plants
# Excerpt: (§1) ABUTH: Abutilon theophrasti AGSTE: Agrostis tenuis ALOMY: Alopecurus myosuroides AMARE Amaranthus retroflexus DIGSA: Digitaria sanguinalis ECHCG: Echinochloa crus-galli KCHSC: Kochia scoparia LOLRI: Lolium rigidum MATIN: Matricaria inodora POAAN: Poa annua POLCO: Polygonum convolvulus SETVI: Setaria viridis STEME: Stellaria media VERPE: Veronica persica VIOTR: Viola tricolor
# (§2) Seeds of mono- and dicotyledonous weed plants were sown in plastic pots (double sowings with one species of mono- and one species of dicotyledonous weed plants per pot), in sandy loam, and covered with soil. The compounds according to the invention, formulated in the form of wettable powders (WP) or as emulsifiable concentrates (EC), were applied to the surface of the covering soil as aqueous suspension or emulsion, with the addition of 0.5% of an additive, at an application rate of 600 l of water per hectare (converted). Following treatment, the pots were placed in a greenhouse and kept under optimum growth conditions for the test plants. The visual grading of the damage to the test plants was carried out after ca. 3 weeks in comparison to untreated controls (herbicidal effect in percent (%): 100% effect=plants have died off, 0% effect=as control plants).
# (§3) Tables A1 to A12, below, show the effects of selected compounds of the general formula (I) according to table 1 on various harmful plants and an application rate corresponding to 1280 g/ha obtained by the experimental procedure mentioned above.
row,SMILES,"DIGSA, herbicidal effect in percent (%)"
1,CCc1cc2sc(S(C)(=O)=O)nc2nc1-c1ccccc1F [Example I-059],100
2,Cc1ccccc1-c1nc2ncsc2cc1Cl [Example I-083],100
3,Cc1cc2sc(S)nc2nc1-c1ccccc1F [Example I-155],90

# Tested on: Kochia scoparia (KCHSC; Bassia scoparia)
# Test: Herbicidal pre-emergence action (A), 1280 g/ha
# Assay type: in vivo
# Settings: visual grading after ca. 3 weeks vs untreated controls
# Excerpt: as §1, §2, §3
row,SMILES,herbicidal effect KCHSC [%]
1,CCOc1nc2nc(-c3ccccc3C)c(CC)cc2s1 [Example I-055],100
2,CCc1cc2sc(S(C)(=O)=O)nc2nc1-c1ccccc1F [Example I-059],90
3,Cc1cc2sc(S)nc2nc1-c1ccccc1F [Example I-155],90

# Tested on: Alopecurus myosuroides (ALOMY)
# Test: Herbicidal pre-emergence action (A), 1280 g/ha
# Assay type: in vivo
# Settings: visual grading after ca. 3 weeks vs untreated controls, 100% = plants have died off, 0% = as control plants
# Excerpt: as §1, §2, §3
row,SMILES,"ALOMY, herbicidal effect in percent (%)"
1,Cc1ccccc1-c1nc2ncsc2cc1Cl [Example I-083],100

# Tested on: Amaranthus retroflexus (AMARE)
# Test: Herbicidal pre-emergence action (A), 1280 g/ha
# Assay type: in vivo
# Settings: visual grading after ca. 3 weeks vs untreated controls
# Excerpt: as §1, §2, §3
row,SMILES,herbicidal effect AMARE [%]
1,Cc1cc2sc(S)nc2nc1-c1ccccc1F [Example I-155],90

# Tested on: Stellaria media (STEME)
# Test: Herbicidal pre-emergence action (A), 1280 g/ha
# Assay type: in vivo
# Settings: visual grading after ca. 3 weeks vs untreated controls
# Excerpt: as §1, §2, §3
row,SMILES,herbicidal effect STEME [%]
1,CCOc1nc2nc(-c3ccccc3C)c(CC)cc2s1 [Example I-055],90
2,Cc1ccccc1-c1nc2ncsc2cc1Cl [Example I-083],100

# Tested on: Echinochloa crus-galli (ECHCG)
# Test: Herbicidal pre-emergence action (A), 1280 g/ha
# Assay type: in vivo
# Settings: visual grading after ca. 3 weeks vs untreated controls, 100% = plants have died off, 0% = as control plants
# Excerpt: as §1, §2, §3
row,SMILES,"ECHCG, herbicidal effect in percent (%)"
1,CCOc1nc2nc(-c3ccccc3C)c(CC)cc2s1 [Example I-055],100
2,Cc1ccccc1-c1nc2ncsc2cc1Cl [Example I-083],100
3,Cc1cc2sc(S)nc2nc1-c1ccccc1F [Example I-155],100

# Tested on: Setaria viridis (SETVI)
# Test: Herbicidal pre-emergence action (A), 1280 g/ha
# Assay type: in vivo
# Settings: visual grading after ca. 3 weeks vs untreated controls
# Excerpt: as §1, §2, §3
row,SMILES,herbicidal effect SETVI [%]
1,CCOc1nc2nc(-c3ccccc3C)c(CC)cc2s1 [Example I-055],100
2,CCc1cc2sc(S(C)(=O)=O)nc2nc1-c1ccccc1F [Example I-059],100
3,Cc1ccccc1-c1nc2ncsc2cc1Cl [Example I-083],100
4,Cc1cc2sc(S)nc2nc1-c1ccccc1F [Example I-155],100

# Tested on: Poa annua (POAAN)
# Test: Herbicidal pre-emergence action (A), 1280 g/ha
# Assay type: in vivo
# Settings: visual grading after ca. 3 weeks vs untreated controls, 100% = plants have died off, 0% = as control plants
# Excerpt: as §1, §2, §3
row,SMILES,"POAAN, herbicidal effect in percent (%)"
1,CCOc1nc2nc(-c3ccccc3C)c(CC)cc2s1 [Example I-055],100
2,CCc1cc2sc(S(C)(=O)=O)nc2nc1-c1ccccc1F [Example I-059],100
3,Cc1ccccc1-c1nc2ncsc2cc1Cl [Example I-083],100
4,Cc1cc2sc(S)nc2nc1-c1ccccc1F [Example I-155],100

# Tested on: Veronica persica (VERPE)
# Test: Herbicidal pre-emergence action (A), 1280 g/ha
# Assay type: in vivo
# Settings: visual grading after ca. 3 weeks vs untreated controls
# Excerpt: as §1, §2, §3
row,SMILES,herbicidal effect VERPE [%]
1,Cc1ccccc1-c1nc2ncsc2cc1Cl [Example I-083],100
2,Cc1cc2sc(S)nc2nc1-c1ccccc1F [Example I-155],90

# Tested on: Lolium rigidum (LOLRI)
# Test: Herbicidal pre-emergence action (A), 1280 g/ha
# Assay type: in vivo
# Settings: visual grading after ca. 3 weeks vs untreated controls, 100% = plants have died off, 0% = as control plants
# Excerpt: as §1, §2, §3
row,SMILES,"LOLRI, herbicidal effect in percent (%)"
1,CCOc1nc2nc(-c3ccccc3C)c(CC)cc2s1 [Example I-055],90
2,Cc1ccccc1-c1nc2ncsc2cc1Cl [Example I-083],100

# Tested on: Kochia scoparia (KCHSC; Bassia scoparia)
# Test: Herbicidal post-emergence action (B), 1280 g/ha
# Assay type: in vivo
# Settings: not given
# Excerpt: as §1
# (§4) Seeds of mono- and dicotyledonous weed plants were placed in plastic pots in sandy loam soil (doubly sown with in each case one species of mono- or dicotyledonous weed plants per pot), covered with soil and cultivated in a greenhouse under controlled growth conditions. 2 to 3 weeks after sowing, the test plants were treated at the one-leaf stage. The compounds of the invention, formulated in the form of wettable powders (WP) or as emulsion concentrates (EC), were applied onto the green parts of the plants as aqueous suspension or emulsion with addition of 0.5% additive at a water application rate of 600 liters per hectare (converted). After the test plants had been kept in the greenhouse under optimum growth conditions for about 3 weeks, the activity of the preparations was rated visually in comparison to untreated controls. For example, 100% activity=the plants have died, 0% activity=like control plants.
# (§5) Tables B1 to B12, below, show the effects of selected compounds of the general formula (I) according to table 1 on various harmful plants and an application rate corresponding to 1280 g/ha obtained by the experimental procedure mentioned above.
row,SMILES,herbicidal effect KCHSC [%]
1,CCc1cc2sc(S(C)(=O)=O)nc2nc1-c1ccccc1F [Example I-059],90
2,Cc1ccccc1-c1nc2ncsc2cc1Cl [Example I-083],90
3,Cc1cc2sc(S)nc2nc1-c1ccccc1F [Example I-155],100

# Tested on: Amaranthus retroflexus (AMARE)
# Test: Herbicidal post-emergence action (B), 1280 g/ha
# Assay type: in vivo
# Settings: rated visually after about 3 weeks vs untreated controls
# Excerpt: as §1, §4, §5
row,SMILES,herbicidal activity AMARE [%]
1,CCc1cc2sc(S(C)(=O)=O)nc2nc1-c1ccccc1F [Example I-059],100
2,Cc1ccccc1-c1nc2ncsc2cc1Cl [Example I-083],100
3,Cc1cc2sc(S)nc2nc1-c1ccccc1F [Example I-155],100

# Tested on: Stellaria media (STEME)
# Test: Herbicidal post-emergence action (B), 1280 g/ha
# Assay type: in vivo
# Settings: not given
# Excerpt: as §1, §4, §5
row,SMILES,herbicidal effect STEME [%]
1,Cc1ccccc1-c1nc2ncsc2cc1Cl [Example I-083],100

# Tested on: Echinochloa crus-galli (ECHCG)
# Test: Herbicidal post-emergence action (B), 1280 g/ha
# Assay type: in vivo
# Settings: rated visually after about 3 weeks vs untreated controls
# Excerpt: as §1, §4, §5
row,SMILES,herbicidal activity ECHCG [%]
1,CCOc1nc2nc(-c3ccccc3C)c(CC)cc2s1 [Example I-055],90

# Tested on: Poa annua (POAAN)
# Test: Herbicidal post-emergence action (B), 1280 g/ha
# Assay type: in vivo
# Settings: rated visually after about 3 weeks vs untreated controls
# Excerpt: as §1, §4, §5
row,SMILES,herbicidal activity POAAN [%]
1,CCOc1nc2nc(-c3ccccc3C)c(CC)cc2s1 [Example I-055],100

# Tested on: Veronica persica (VERPE)
# Test: Herbicidal post-emergence action (B), 1280 g/ha
# Assay type: in vivo
# Settings: not given
# Excerpt: as §1, §4, §5
row,SMILES,herbicidal effect VERPE [%]
1,CCc1cc2sc(S(C)(=O)=O)nc2nc1-c1ccccc1F [Example I-059],100
2,Cc1ccccc1-c1nc2ncsc2cc1Cl [Example I-083],90
3,Cc1cc2sc(S)nc2nc1-c1ccccc1F [Example I-155],90

# Tested on: Abutilon theophrasti (ABUTH)
# Test: Herbicidal post-emergence action (B), 1280 g/ha
# Assay type: in vivo
# Settings: rated visually after about 3 weeks vs untreated controls
# Excerpt: as §1, §4, §5
row,SMILES,herbicidal activity ABUTH [%]
1,CCc1cc2sc(S(C)(=O)=O)nc2nc1-c1ccccc1F [Example I-059],100

# From patent US20230151025A1, “SUBSTITUTED THIAZOLOPYRIDINES, SALTS THEREOF AND THEIR USE AS HERBICIDALLY ACTIVE SUBSTANCES” (Bayer Aktiengesellschaft, priority 2020, published 2023)
